# Experimental data from patent publication US12492197B2, “3,5-disubstituted pyrazole compounds as kinase inhibitors and uses thereof” (IMPACT THERAPEUTICS (SHANGHAI), INC, priority 2019, dated 2025).
# How the values were obtained:
# CHK1 kinase = molecular target: T1, CHK1 kinase (Homo sapiens, UniProt O14757); assay: CHK1 kinase inhibition, ADP-Glo kinase assay; type: biochemical; conditions: ATP 10 μM, CHK1 1 ng/well; for IC50: read-out: IC50 (inhibitory effect on CHK1 kinase activity); for inhibition at 0.01 µM: compound concentration 10 nM, read-out: Inh % (inhibitory effect on CHK1 kinase activity)
# T1 construct: purchased Promega V1941
# T1 sequence (O14757 1-476): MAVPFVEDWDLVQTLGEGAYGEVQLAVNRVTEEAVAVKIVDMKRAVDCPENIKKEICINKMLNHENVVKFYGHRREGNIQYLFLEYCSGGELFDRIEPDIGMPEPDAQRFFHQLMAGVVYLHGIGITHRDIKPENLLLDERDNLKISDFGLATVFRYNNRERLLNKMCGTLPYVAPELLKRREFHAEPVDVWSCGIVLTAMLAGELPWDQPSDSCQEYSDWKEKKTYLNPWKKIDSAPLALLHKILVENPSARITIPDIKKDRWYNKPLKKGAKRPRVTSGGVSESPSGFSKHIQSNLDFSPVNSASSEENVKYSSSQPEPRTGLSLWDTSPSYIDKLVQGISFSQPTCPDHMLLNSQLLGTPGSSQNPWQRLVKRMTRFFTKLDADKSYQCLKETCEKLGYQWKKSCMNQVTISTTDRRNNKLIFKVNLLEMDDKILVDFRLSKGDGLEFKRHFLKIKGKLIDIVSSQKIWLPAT
# [1] = test system: human breast cancer cell HCC1806; assay: Proliferation of HCC1806 cells, MTT assay; type: cell-based; conditions: HCC1806, 72 h, 3 days treatment, read-out: IC50 (inhibition of proliferation of HCC1806)
# [2] = test system: human pancreatic cancer cell SW1990; assay: Proliferation of SW1990 cells, MTT assay; type: cell-based; conditions: SW1990, 120 h, 5 days treatment, read-out: IC50 (inhibition of proliferation of SW1990)
# Description: Newly revived SW1990 cells (purchased from Shanghai Fuheng Biology) were cultured and passaged for at least three generations before use. Cells were used at about 90% confluency for experiments. Cells were digested with trypsinase and centrifuged at 800 rpm for 5 minutes. The cell pellets were resuspended in fresh DMEM medium and cells were counted. Cells were seeded on 96-well cell culture plates at 5000 cells/well and incubated overnight at 37° C., 5% CO2. The stock solutions of the test substances (including the test compounds and the reference compound) were serially diluted to 8 concentrations with DMSO at a ratio of 1:3. 5 μL of each serially diluted solutions was added to 120 μL of medium (diluted by 25 times) and mixed by shaking. […] The cell culture plates were returned to incubator at 37° C. and 5% CO2 for 5 days. At the end of the treatment the cell viability was determined by MTT colorimetric assay. Cell culture medium in each well was replaced by 100 μL/well of serum-free fresh medium containing MTT (0.5 mg/mL), and the culture was continued for additional 4 hours. Medium was then discarded and 100 μL/well of DMSO was added.
# Data was analyzed by GraphPad Prism 6.0. The inhibitory effects of compounds on cell proliferation were plotted based on cell viability vs. the logarithm of compound concentration. Cell viability %=(ODcompound−ODbackground)/(ODDMSO−ODbackground)×100.
# [3] = test system: human colon cancer cell LoVo; assay: Proliferation of LoVo cells, MTT assay; type: cell-based; conditions: 96 h, 4 days treatment, read-out: IC50 (inhibition of proliferation of LoVo)
Compound,IC50 (CHK1 kinase),inhibition at 0.01 µM (CHK1 kinase),IC50 [1],IC50 [2],IC50 [3]
"COc1cc(F)cc(OC[C@@H]2CNCCO2)c1-c1cc(Nc2cnc(C#N)cn2)n[nH]1 [Example 14, (S)-5-((5-(4-fluoro-2-methoxy-6-(morpholin-2-ylmethoxy)phenyl)-1H-pyrazol-3-yl)amino)pyrazine-2-carbonitrile]",0.69 nM,94%,12 nM,6.1 nM,19.2 nM
"COc1cccc(OC[C@H]2CNCCO2)c1-c1cc(Nc2cnc(C#N)cn2)n[nH]1 [Example 3, (R)-5-((5-(2-methoxy-6-(morpholin-2-ylmethoxy)phenyl)-1H-pyrazol-3-yl)amino)pyrazine-2-carbonitrile]",,79%,94.2 nM,50.7 nM,
"COc1cccc(OC2CCNCC2)c1-c1cc(Nc2cnc(C#N)cn2)n[nH]1 [Example 30, 5-((5-(2-methoxy-6-(piperidin-4-yloxy)phenyl)-1H-pyrazol-3-yl)amino)pyrazine-2-carbonitrile]",,89%,31.7 nM,19.1 nM,
"COc1cccc(OC[C@H]2CCNC2)c1-c1cc(Nc2cnc(C#N)cn2)n[nH]1 [Example 13, (S)-5-((5-(2-methoxy-6-(pyrrolidin-3-ylmethoxy)phenyl)-1H-pyrazol-3-yl)amino)pyrazine-2-carbonitrile]",0.45 nM,,2.1 nM,1.9 nM,
"COc1cccc(OCC2CCNCC2)c1-c1cc(Nc2cnc(C#N)cn2)n[nH]1 [Example 12, 5-((5-(2-methoxy-6-(piperidin-4-ylmethoxy)phenyl)-1H-pyrazol-3-yl)amino)pyrazine-2-carbonitrile]",0.72 nM,,13.9 nM,10.1 nM,
"COc1cc(Br)cc(OC[C@@H]2CNCCO2)c1-c1cc(Nc2cnc(C#N)cn2)n[nH]1 [Example 18, (S)-5-((5-(4-bromo-2-methoxy-6-(morpholin-2-ylmethoxy)phenyl)-1H-pyrazol-3-yl)amino)pyrazine-2-carbonitrile]",,79%,39.2 nM,19.6 nM,
"COc1cccc(OC[C@H]2CCCNC2)c1-c1cc(Nc2cnc(C#N)cn2)n[nH]1 [Example 9, (S)-5-((5-(2-methoxy-6-(piperidin-3-ylmethoxy)phenyl)-1H-pyrazol-3-yl)amino)pyrazine-2-carbonitrile]",0.97 nM,92%,1.2 nM,1.2 nM,4.4 nM
"COc1cccc(OC[C@@H]2CN(C)CCO2)c1-c1cc(Nc2cnc(C#N)cn2)n[nH]1 [Example 4, (S)-5-((5-(2-methoxy-6-((4-methylmorpholin-2-yl)methoxy)phenyl)-1H-pyrazol-3-yl)amino)pyrazine-2-carbonitrile]",,82%,139 nM,123 nM,
"COc1cccc(OC[C@@H]2CNCCO2)c1-c1cc(Nc2cnc(C#N)cn2)n[nH]1 [Example 1, (S)-5-((5-(2-methoxy-6-(morpholin-2-ylmethoxy)phenyl)-1H-pyrazol-3-yl)amino)pyrazine-2-carbonitrile]",0.84 nM,95%,7.4 nM,6.3 nM,15.5 nM
"COc1ccc(Cl)c(OC[C@@H]2CNCCO2)c1-c1cc(Nc2cnc(C#N)cn2)n[nH]1 [Example 17, (S)-5-((5-(3-chloro-6-methoxy-2-(morpholin-2-ylmethoxy)phenyl)-1H-pyrazol-3-yl)amino)pyrazine-2-carbonitrile]",,50%,895 nM,615 nM,
"COc1cc(Cl)cc(OC[C@@H]2CNCCO2)c1-c1cc(Nc2cnc(C#N)cn2)n[nH]1 [Example 16, (S)-5-((5-(4-chloro-2-methoxy-6-(morpholin-2-ylmethoxy)phenyl)-1H-pyrazol-3-yl)amino)pyrazine-2-carbonitrile]",,93%,11.8 nM,11.8 nM,
"COc1cccc(OC[C@@H]2CNCCO2)c1-c1cc(Nc2ccc(C#N)nc2)n[nH]1 [Example 2, (S)-5-((5-(2-methoxy-6-(morpholin-2-ylmethoxy)phenyl)-1H-pyrazol-3-yl)amino)picolinonitrile]",,85%,153 nM,84.9 nM,
